# Measurements reported in patent US8912144B2, “Method for treating stroke via administration of NEP1-40 and inosine” (Children's Medical Center Corporation, priority 2003, dated 2014).
# Tested on: corticospinal neurons (CSNs/CSMNs)
# Test: Laser-capture microdissection and Illumina microarray gene expression in corticospinal neurons contralateral to stroke
# Type: in vivo, rat
# Method: In a separate group of animals (n=20), layer V pyramidal cells of the sensorimotor cortex were retrogradely labeled by injecting Alexa-Fluor-488-conjugated cholera toxin B subunit (CTB; 300 U/μl in sterile saline) into the cervical spinal cord. For this, animals were anesthetized with a combination of ketamine and Domitor (medetomidine) and a laminectomy was performed at the cervical level of the spinal cord (C2-C4). CTB was stereotaxically delivered into four sites lateral to the corticospinal tract. Injections (1.3 μl) were spaced 1 mm apart on the rostro-caudal axis, and were made 0.5 mm to the left and right of the midline. After allowing two weeks for transport of the tracer, we performed either sham surgery with no treatment (n=6) or stroke surgery combined with saline (n=3) or inosine (n=4) treatment as described above. Seven days later, animals were decapitated under transient gas anesthesia, brains were removed and rinsed in cold RPMI medium, and a tissue block containing the sensorimotor cortex was dissected and placed in OCT Tissue Tek Medium (Sakura Finetek USA Inc., CA) on dry ice within five minutes of death. Ten μm sections were cut onto precleaned Gold Seal RITE-ON glass slides (Gold Seal Prod-ucts, Portsmouth, N.H.), placed on dry ice, and rapidly stored at −80° C.
# Slide-mounted sections were thawed and dehydrated in RNAse-free ethanol gradients and xylene. Retro-gradely labeled, fluorescent cortical pyramidal cells in the undamaged hemisphere were individually captured using the Arcturus VERITAS system. ≧500 cells were collected from each animal and stored in Arcturus extraction buffer at −80° C. Total RNA was extracted from cells using the Micro-to-Midi TotalRNA Purification System (Invitrogen, Carlsbad Calif.) and double-amplified using the TargetAmp 2-Round Aminoallyl-aRNA Amplification kit 1.0 (Epicentre, Madison, Wis.). Amplified RNA was checked for average fragment length using the Agilent RNA 6000 Nano LabChip kit (Agilent Technologies, Santa Clara, Calif.) and then biotinylated and hybridized (1 μg) on Illumina RatRef-12 Expression BeadChip arrays (Illumina, San Diego Calif.), querying the expression of >22,000 RefSeq-curated rat transcripts. Results were obtained from a total of 15 samples representing 6 untreated controls, 4 animals with stroke treated with saline and 5 animals with stroke treated with inosine. Slides were processed and scanned with Illumina BeadStation platform according to the manufacturer protocol.
# Raw data was analyzed using Bioconductor packages (www.bioconductor.org, (Gentleman et al., 2004)). Low level quality-control analysis was performed using inter-array Pearson correlation and clustering based on variance. Two arrays (1 saline and 1 inosine-treated) were outliers and were excluded from the analysis. Data was normalized using quantile normalization, and analysis of differential expression was performed using a linear model fitting (LIMMA package, (Smyth, 2005). Differentially expressed genes were classified according to gene ontology using Bioconductor packages and online tools (DAVID, http://david.abcc.ncifcrf.gov/). Pathway analysis was carried out using Ingenuity Pathway Analysis (Ingenuity Systems, www.ingenuity.com).
compound,measurement,setting,value
OC[C@H]1O[C@@H](n2cnc3c(O)ncnc32)[C@H](O)[C@@H]1O [inosine],"Signal Intensity, MGC94053","ILMN_53763, inosine after stroke",469
same,"Fold-Induction Stroke, ino vs. cntrl, Cnot7",ILMN_53955,0.60
same,"Signal Intensity, Cnot7","ILMN_53955, inosine after stroke",427
same,"Fold-Induction Stroke, ino vs. cntrl, Rnf11",ILMN_54109,0.49
same,"Signal Intensity, Rnf11","ILMN_54109, inosine after stroke",825
same,"Fold-Induction Stroke, ino vs. cntrl, Scara3",ILMN_54123,0.78
same,"Signal Intensity, Scara3","ILMN_54123, inosine after stroke",470
same,"Fold-Induction Stroke, ino vs. cntrl, Gabarapl2",ILMN_54140,0.75
same,"Signal Intensity, Gabarapl2","ILMN_54140, inosine after stroke",1324
same,Fold-induction CSMNs: Vim,"ILMN_54242, over and above inosine's effect of decreasing stroke-induced changes",1.96 fold
same,"Fold-Induction Stroke, ino vs. cntrl, LOC501145",ILMN_54288,0.70
same,"Signal Intensity, LOC501145","ILMN_54288, inosine after stroke",626
same,"Fold-Induction Stroke, ino vs. cntrl, Echdc1",ILMN_54458,0.67
same,"Signal Intensity, Echdc1","ILMN_54458, inosine after stroke",531
same,"Fold-Induction Stroke, ino vs. cntrl, LOC498407",ILMN_54747,0.64
same,"Signal Intensity, LOC498407","ILMN_54747, inosine after stroke",1261
same,"Fold-Induction Stroke, ino vs. cntrl, Fuca2",ILMN_55057,0.56
same,"Signal Intensity, Fuca2","ILMN_55057, inosine after stroke",662
same,"Fold-Induction Stroke, ino vs. cntrl, Grm3",ILMN_55270,0.50
same,"Signal Intensity, Grm3","ILMN_55270, inosine after stroke",387
same,Fold-induction CSMNs: Rnaset2,"ILMN_55431, over and above inosine's effect of decreasing stroke-induced changes",1.88 fold
same,"Fold-Induction, complement cascade gene C1qg","ILMN_55502, LCM-captured CSMNs contralateral a stroke",3.96 fold
same,Fold-induction CSMNs: C1qg,"ILMN_55502, over and above inosine's effect of decreasing stroke-induced changes",2.73 fold
same,"Fold-Induction Stroke, ino vs. cntrl, Map2k4",ILMN_55667,0.65
same,"Signal Intensity, Map2k4","ILMN_55667, inosine after stroke",9089
same,"Fold-Induction Stroke, ino vs. cntrl, LOC498618",ILMN_55685,0.49
same,"Signal Intensity, LOC498618","ILMN_55685, inosine after stroke",3089
same,"Fold-Induction, complement cascade gene C1s","ILMN_55706, LCM-captured CSMNs contralateral a stroke",2.07 fold
same,Fold-induction CSMNs: C1s,"ILMN_55706, over and above inosine's effect of decreasing stroke-induced changes",2.03 fold
same,Fold-induction CSMNs: Bzrp,"ILMN_55731, over and above inosine's effect of decreasing stroke-induced changes",2.38 fold
same,"Fold-Induction Stroke, ino vs. cntrl, Klhl2",ILMN_55879,0.78
same,"Signal Intensity, Klhl2","ILMN_55879, inosine after stroke",516
same,"Fold-Induction Stroke, ino vs. cntrl, Tceal1",ILMN_55905,0.57
same,"Signal Intensity, Tceal1","ILMN_55905, inosine after stroke",286
same,"Fold-Induction Stroke, ino vs. cntrl, LOC502317",ILMN_55909,0.40
same,"Signal Intensity, LOC502317","ILMN_55909, inosine after stroke",689
same,"Fold-Induction Stroke, ino vs. cntrl, Nr2f1",ILMN_55914,0.52
same,"Signal Intensity, Nr2f1","ILMN_55914, inosine after stroke",526
same,"Fold-Induction Stroke, ino vs. cntrl, Slc16a1",ILMN_55995,0.56
same,"Signal Intensity, Slc16a1","ILMN_55995, inosine after stroke",827
same,"Fold-Induction Stroke, ino vs. cntrl, Tpt1",ILMN_56078,0.89
same,"Signal Intensity, Tpt1","ILMN_56078, inosine after stroke",11229
same,"Fold-Induction Stroke, ino vs. cntrl, Acsl3",ILMN_56170,0.50
same,"Signal Intensity, Acsl3","ILMN_56170, inosine after stroke",389
same,"Fold-Induction Stroke, ino vs. cntrl, Scn1a",ILMN_56183,0.88
same,"Signal Intensity, Scn1a","ILMN_56183, inosine after stroke",517
same,"Fold-Induction Stroke, ino vs. cntrl, Cetn3",ILMN_56556,0.63
same,"Signal Intensity, Cetn3","ILMN_56556, inosine after stroke",649
same,"Fold-Induction Stroke, ino vs. cntrl, Zfp68",ILMN_56593,0.59
same,"Signal Intensity, Zfp68","ILMN_56593, inosine after stroke",727
same,"Fold-Induction Stroke, ino vs. cntrl, Pnrc1",ILMN_56710,0.65
same,"Signal Intensity, Pnrc1","ILMN_56710, inosine after stroke",626
same,"Fold-Induction Stroke, ino vs. cntrl, RGD1308082",ILMN_56896,0.62
same,"Signal Intensity, RGD1308082","ILMN_56896, inosine after stroke",428
same,"Fold-Induction Stroke, ino vs. cntrl, Scg3",ILMN_56986,0.69
same,"Signal Intensity, Scg3","ILMN_56986, inosine after stroke",870
same,"Fold-Induction Stroke, ino vs. cntrl, Plp",ILMN_57073,0.51
same,"Signal Intensity, Plp","ILMN_57073, inosine after stroke",1222
same,Fold-induction CSMNs: Serpinb1a,"ILMN_57422, over and above inosine's effect of decreasing stroke-induced changes",2.41 fold
same,"Fold-Induction Stroke, ino vs. cntrl, Lisch7",ILMN_57520,0.69
same,"Signal Intensity, Lisch7","ILMN_57520, inosine after stroke",484
same,"Fold-Induction Stroke, ino vs. cntrl, Olfm3",ILMN_57553,0.62
same,"Signal Intensity, Olfm3","ILMN_57553, inosine after stroke",473
same,"Fold-Induction Stroke, ino vs. cntrl, Vmp1",ILMN_57554,0.57
same,"Signal Intensity, Vmp1","ILMN_57554, inosine after stroke",1305
same,"Fold-Induction Stroke, ino vs. cntrl, Sc4mol",ILMN_57630,0.52
same,"Signal Intensity, Sc4mol","ILMN_57630, inosine after stroke",271
same,"Fold-Induction Stroke, ino vs. cntrl, RGD1308373",ILMN_57697,0.66
same,"Signal Intensity, RGD1308373","ILMN_57697, inosine after stroke",2921
same,"Fold-Induction Stroke, ino vs. cntrl, Gucy1b3",ILMN_57719,0.57
same,"Signal Intensity, Gucy1b3","ILMN_57719, inosine after stroke",3956
same,"Fold-Induction Stroke, ino vs. cntrl, Tnnc2",ILMN_57928,0.48
same,"Signal Intensity, Tnnc2","ILMN_57928, inosine after stroke",650
